Experimental data as given in patent EP4745137A1 (Gluetacs Therapeutics (Shanghai) Co., Ltd., priority 2023, dated 2025).
pIC50: −log10 of the molar value. Values belong to the compound of their own block, whether it stands above or below them.

Legend:
[1] = target: T1, WEE1 (Homo sapiens, UniProt P30291+Q96SW2); assay: Western-blot assay of substrate protein degradation in hPBMCs, WEE1; type: cell-based; conditions: 24 hours of compound treatment, compounds tested at 50 nM and 500 nM (concentration of the table not stated)
T1 construct: endogenous in cells; host or cells: hPBMCs (Milecell Biotechnologies)
T1 sequence (P30291 whole entry): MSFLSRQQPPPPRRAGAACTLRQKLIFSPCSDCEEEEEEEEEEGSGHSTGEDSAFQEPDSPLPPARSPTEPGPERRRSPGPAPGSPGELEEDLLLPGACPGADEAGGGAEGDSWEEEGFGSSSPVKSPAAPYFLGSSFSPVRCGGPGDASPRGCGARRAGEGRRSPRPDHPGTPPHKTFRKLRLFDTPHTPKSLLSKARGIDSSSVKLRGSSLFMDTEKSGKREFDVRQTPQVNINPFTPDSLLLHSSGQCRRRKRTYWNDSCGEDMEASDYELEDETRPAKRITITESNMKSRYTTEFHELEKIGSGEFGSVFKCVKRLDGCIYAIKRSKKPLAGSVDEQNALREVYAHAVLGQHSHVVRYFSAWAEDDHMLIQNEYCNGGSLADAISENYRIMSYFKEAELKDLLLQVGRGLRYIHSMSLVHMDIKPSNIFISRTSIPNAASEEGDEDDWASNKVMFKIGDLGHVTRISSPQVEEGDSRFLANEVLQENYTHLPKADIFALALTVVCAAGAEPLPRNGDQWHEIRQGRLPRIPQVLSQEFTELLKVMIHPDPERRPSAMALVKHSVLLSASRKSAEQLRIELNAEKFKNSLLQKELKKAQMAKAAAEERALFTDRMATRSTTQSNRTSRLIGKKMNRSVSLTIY
T1 sequence (Q96SW2 whole entry): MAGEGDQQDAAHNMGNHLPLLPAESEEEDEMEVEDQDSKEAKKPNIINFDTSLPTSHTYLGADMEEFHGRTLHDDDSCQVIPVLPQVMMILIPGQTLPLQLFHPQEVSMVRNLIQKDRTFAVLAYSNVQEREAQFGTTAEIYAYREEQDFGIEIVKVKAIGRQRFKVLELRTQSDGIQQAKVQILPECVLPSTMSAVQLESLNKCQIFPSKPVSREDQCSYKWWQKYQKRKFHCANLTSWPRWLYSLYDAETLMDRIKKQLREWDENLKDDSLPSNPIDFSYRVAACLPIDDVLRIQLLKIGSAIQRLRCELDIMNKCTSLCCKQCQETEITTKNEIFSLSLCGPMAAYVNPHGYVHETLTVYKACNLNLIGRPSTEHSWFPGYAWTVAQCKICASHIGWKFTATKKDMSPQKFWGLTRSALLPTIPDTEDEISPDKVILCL
T1 sequence (Q16531 whole entry partner): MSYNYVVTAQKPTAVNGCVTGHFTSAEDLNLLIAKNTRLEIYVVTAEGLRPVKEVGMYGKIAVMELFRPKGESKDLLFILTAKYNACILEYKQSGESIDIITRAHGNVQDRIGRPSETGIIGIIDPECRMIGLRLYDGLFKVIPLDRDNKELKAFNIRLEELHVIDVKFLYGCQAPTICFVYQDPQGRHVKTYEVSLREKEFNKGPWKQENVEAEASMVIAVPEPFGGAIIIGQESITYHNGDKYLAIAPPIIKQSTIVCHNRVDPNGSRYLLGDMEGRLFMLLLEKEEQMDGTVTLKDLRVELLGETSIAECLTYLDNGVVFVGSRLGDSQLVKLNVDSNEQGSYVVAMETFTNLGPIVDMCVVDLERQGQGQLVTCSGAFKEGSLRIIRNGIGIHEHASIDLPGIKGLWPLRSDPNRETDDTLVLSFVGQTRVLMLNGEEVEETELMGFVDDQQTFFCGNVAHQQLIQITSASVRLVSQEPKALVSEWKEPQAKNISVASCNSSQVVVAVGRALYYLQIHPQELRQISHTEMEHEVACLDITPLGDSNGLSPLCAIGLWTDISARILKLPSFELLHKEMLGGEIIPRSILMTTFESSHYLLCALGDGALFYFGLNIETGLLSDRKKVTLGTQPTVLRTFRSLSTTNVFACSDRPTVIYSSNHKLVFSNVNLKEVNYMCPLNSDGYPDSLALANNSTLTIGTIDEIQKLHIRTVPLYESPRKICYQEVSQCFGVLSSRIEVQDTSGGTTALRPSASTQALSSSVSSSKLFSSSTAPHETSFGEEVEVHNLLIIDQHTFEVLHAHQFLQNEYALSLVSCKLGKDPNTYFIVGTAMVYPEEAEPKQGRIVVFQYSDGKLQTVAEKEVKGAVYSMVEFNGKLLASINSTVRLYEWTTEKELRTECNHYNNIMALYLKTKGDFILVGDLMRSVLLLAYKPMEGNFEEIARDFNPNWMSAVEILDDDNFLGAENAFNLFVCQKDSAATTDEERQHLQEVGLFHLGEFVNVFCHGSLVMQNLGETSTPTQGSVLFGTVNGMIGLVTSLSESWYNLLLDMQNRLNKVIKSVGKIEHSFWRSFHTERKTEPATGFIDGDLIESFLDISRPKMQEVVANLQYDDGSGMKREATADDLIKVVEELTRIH

[2] = target: T2, IKZF1 (Homo sapiens, UniProt Q13422+Q96SW2); assay: Western-blot assay of substrate protein degradation in hPBMCs, IKZF1; type: cell-based; conditions: 24 hours of compound treatment, compounds tested at 50 nM and 500 nM (concentration of the table not stated)
T2 construct: endogenous in cells; host or cells: hPBMCs (Milecell Biotechnologies)
T2 sequence (Q13422 whole entry): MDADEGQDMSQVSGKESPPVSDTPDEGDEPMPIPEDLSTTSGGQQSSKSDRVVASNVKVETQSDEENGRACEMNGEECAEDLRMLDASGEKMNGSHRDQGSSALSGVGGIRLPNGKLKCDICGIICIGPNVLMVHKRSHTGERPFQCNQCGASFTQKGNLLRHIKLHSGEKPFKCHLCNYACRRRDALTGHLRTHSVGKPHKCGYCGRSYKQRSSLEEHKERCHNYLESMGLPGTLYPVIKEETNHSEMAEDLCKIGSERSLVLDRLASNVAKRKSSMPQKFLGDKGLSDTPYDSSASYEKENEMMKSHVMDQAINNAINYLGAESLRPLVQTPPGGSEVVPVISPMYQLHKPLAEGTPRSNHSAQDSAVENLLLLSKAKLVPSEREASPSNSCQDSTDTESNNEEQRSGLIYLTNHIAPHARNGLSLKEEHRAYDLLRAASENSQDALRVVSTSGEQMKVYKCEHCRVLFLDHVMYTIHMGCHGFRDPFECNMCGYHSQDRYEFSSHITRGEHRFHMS
T2 sequence (Q96SW2 whole entry): as the sequence (Q96SW2 whole entry) above
T2 sequence (Q16531 whole entry partner): as the sequence (Q16531 whole entry partner) above

[3] = target: T3, IKZF2 (Homo sapiens, UniProt Q96SW2+Q9UKS7); assay: Western-blot assay of substrate protein degradation in hPBMCs, IKZF2; type: cell-based; conditions: 24 hours of compound treatment, compounds tested at 50 nM and 500 nM (concentration of the table not stated)
T3 construct: endogenous in cells; host or cells: hPBMCs (Milecell Biotechnologies)
T3 sequence (Q9UKS7 whole entry): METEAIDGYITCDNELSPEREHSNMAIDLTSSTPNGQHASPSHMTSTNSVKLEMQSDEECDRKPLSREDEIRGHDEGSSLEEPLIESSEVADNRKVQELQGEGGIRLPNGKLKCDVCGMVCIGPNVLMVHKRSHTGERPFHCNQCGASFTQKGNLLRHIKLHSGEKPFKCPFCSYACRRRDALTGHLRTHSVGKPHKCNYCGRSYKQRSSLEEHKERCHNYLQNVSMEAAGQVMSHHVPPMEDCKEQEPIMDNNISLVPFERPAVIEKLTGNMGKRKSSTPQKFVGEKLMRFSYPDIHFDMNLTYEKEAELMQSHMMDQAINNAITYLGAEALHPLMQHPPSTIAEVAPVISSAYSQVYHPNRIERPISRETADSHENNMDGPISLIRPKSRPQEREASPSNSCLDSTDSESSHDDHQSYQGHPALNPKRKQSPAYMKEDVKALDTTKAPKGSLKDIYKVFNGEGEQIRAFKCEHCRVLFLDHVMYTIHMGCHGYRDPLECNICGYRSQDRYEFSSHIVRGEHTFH
T3 sequence (Q96SW2 whole entry): as the sequence (Q96SW2 whole entry) above
T3 sequence (Q16531 whole entry partner): as the sequence (Q16531 whole entry partner) above

[4] = target: T4, IKZF3 (Homo sapiens, UniProt Q96SW2+Q9UKT9); assay: Western-blot assay of substrate protein degradation in hPBMCs, IKZF3; type: cell-based; conditions: 24 hours of compound treatment, compounds tested at 50 nM and 500 nM (concentration of the table not stated)
T4 construct: endogenous in cells; host or cells: hPBMCs (Milecell Biotechnologies)
T4 sequence (Q9UKT9 whole entry): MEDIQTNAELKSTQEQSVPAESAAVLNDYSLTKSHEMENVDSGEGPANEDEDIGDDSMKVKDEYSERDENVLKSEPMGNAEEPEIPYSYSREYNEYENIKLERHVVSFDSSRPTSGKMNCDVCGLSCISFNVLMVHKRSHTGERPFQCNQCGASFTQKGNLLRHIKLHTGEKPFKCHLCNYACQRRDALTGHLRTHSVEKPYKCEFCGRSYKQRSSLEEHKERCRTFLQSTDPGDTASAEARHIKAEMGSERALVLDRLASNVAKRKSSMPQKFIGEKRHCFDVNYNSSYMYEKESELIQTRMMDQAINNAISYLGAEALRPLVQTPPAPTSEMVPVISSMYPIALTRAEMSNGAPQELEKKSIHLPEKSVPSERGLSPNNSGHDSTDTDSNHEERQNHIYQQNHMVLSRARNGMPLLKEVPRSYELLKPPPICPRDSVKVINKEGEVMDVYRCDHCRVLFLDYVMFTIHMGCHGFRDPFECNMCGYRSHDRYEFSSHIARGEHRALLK
T4 sequence (Q96SW2 whole entry): as the sequence (Q96SW2 whole entry) above
T4 sequence (Q16531 whole entry partner): as the sequence (Q16531 whole entry partner) above

[5] = target: T5, CK1α (Homo sapiens, UniProt P48729+Q96SW2); assay: Western-blot assay of substrate protein degradation in hPBMCs, CK1α; type: cell-based; conditions: 24 hours of compound treatment, compounds tested at 50 nM and 500 nM (concentration of the table not stated)
T5 construct: endogenous in cells; host or cells: hPBMCs (Milecell Biotechnologies)

[6] = target: T6, GSPT1 (Homo sapiens, UniProt P15170+Q96SW2); assay: Western-blot assay of substrate protein degradation in hPBMCs, GSPT1; type: cell-based; conditions: 24 hours of compound treatment, compounds tested at 50 nM and 500 nM (concentration of the table not stated)
T6 construct: endogenous in cells; host or cells: hPBMCs (Milecell Biotechnologies)
T6 sequence (P15170 whole entry): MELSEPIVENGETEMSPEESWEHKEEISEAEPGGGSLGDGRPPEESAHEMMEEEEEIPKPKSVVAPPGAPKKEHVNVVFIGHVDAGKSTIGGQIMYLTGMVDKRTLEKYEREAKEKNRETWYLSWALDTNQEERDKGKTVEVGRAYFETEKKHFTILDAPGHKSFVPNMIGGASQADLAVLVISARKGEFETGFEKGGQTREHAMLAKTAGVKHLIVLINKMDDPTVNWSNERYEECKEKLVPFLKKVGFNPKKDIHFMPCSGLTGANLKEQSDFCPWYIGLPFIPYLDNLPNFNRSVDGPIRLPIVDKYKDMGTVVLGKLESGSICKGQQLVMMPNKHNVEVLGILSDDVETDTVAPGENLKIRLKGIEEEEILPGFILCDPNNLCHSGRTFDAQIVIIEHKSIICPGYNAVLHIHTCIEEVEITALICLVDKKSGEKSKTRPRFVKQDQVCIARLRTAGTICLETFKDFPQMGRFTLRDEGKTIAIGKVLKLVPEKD
T6 sequence (Q96SW2 whole entry): as the sequence (Q96SW2 whole entry) above
T6 sequence (Q16531 whole entry partner): as the sequence (Q16531 whole entry partner) above

[7] = target: T7, human Cereblon WT GST-tagged protein (Homo sapiens, UniProt Q96SW2); assay: CRBN-binding affinity by HTRF (CEREBLON BINDING kit); conditions: HTRF inhibitory activity, CEREBLON BINDING kit; read-out: HTRF IC50
T7 construct: purchased CISBIO 64BDCRBNPEH
T7 sequence (Q96SW2 whole entry): as the sequence (Q96SW2 whole entry) above

SMILES: O=C1CCC(N2Cc3cc(CN4CCN(c5nc(N6CCNCC6)c6sccc6n5)CC4)ccc3C2=O)C(=O)N1 (stereo not drawn) [GT-04698, 3-(1-oxo-5-((4-(4-(piperazin-1-yl)thieno[3,2-d]pyrimidin-2-yl)piperazin-1-yl)methyl)isoindolin-2-yl)piperidine-2,6-dione]
- Weel substrate protein remaining % [1]: A (0% ≤ substrate protein remaining % ≤ 80%)
- IKZF 1 substrate protein remaining % [2]: A (0% ≤ substrate protein remaining % ≤ 80%)
- IKZF2 substrate protein remaining % [3]: A (0% ≤ substrate protein remaining % ≤ 80%)
- IKZF3 substrate protein remaining % [4]: A (0% ≤ substrate protein remaining % ≤ 80%)
- CK1a substrate protein remaining % [5]: B (80%< substrate protein remaining %≤ 100%)
- GSPT1 substrate protein remaining % [6]: A (0% ≤ substrate protein remaining % ≤ 80%)
- pIC50 [7]: 6.00 to 6.30

SMILES: O=C1CCC(N2Cc3cc(CN4CC(C5CCOc6cc(F)ccc65)C4)ccc3C2=O)C(=O)N1 (stereo not drawn) [GT-04700, 3-(5-((3-(7-fluorochroman-4-yl)azetidin-1-yl)methyl)-1-oxoisoindolin-2-yl)piperidine-2,6-dione]
- Weel substrate protein remaining % [1]: B (80%< substrate protein remaining %≤ 100%)
- IKZF 1 substrate protein remaining % [2]: A (0% ≤ substrate protein remaining % ≤ 80%)
- IKZF2 substrate protein remaining % [3]: A (0% ≤ substrate protein remaining % ≤ 80%)
- IKZF3 substrate protein remaining % [4]: A (0% ≤ substrate protein remaining % ≤ 80%)
- CK1a substrate protein remaining % [5]: B (80%< substrate protein remaining %≤ 100%)
- GSPT1 substrate protein remaining % [6]: A (0% ≤ substrate protein remaining % ≤ 80%)
- pIC50 [7]: 6.00 to 6.30

SMILES: O=C1CCC(N2Cc3cc(CN4CCC(c5ncnc6sccc56)CC4)ccc3C2=O)C(=O)N1 (stereo not drawn) [GT-04702, 3-(1-oxo-5-((4-(thieno[2,3-d]pyrimidin-4-yl)piperidin-1-yl)methyl)isoindolin-2-yl)piperidine-2,6-dione]
- Weel substrate protein remaining % [1]: B (80%< substrate protein remaining %≤ 100%)
- IKZF 1 substrate protein remaining % [2]: A (0% ≤ substrate protein remaining % ≤ 80%)
- IKZF2 substrate protein remaining % [3]: A (0% ≤ substrate protein remaining % ≤ 80%)
- IKZF3 substrate protein remaining % [4]: A (0% ≤ substrate protein remaining % ≤ 80%)
- CK1a substrate protein remaining % [5]: B (80%< substrate protein remaining %≤ 100%)
- GSPT1 substrate protein remaining % [6]: A (0% ≤ substrate protein remaining % ≤ 80%)
- pIC50 [7]: 6.00 to 6.30

SMILES: CC(C)c1cc2c(N3CCN(Cc4ccc5c(c4)CN(C4CCC(=O)NC4=O)C5=O)CC3)ncnc2s1 (stereo not drawn) [GT-04705, 3-(5-((4-(6-isopropylthieno[2,3-d]pyrimidin-4-yl)piperazin-1-yl)methyl)-1-oxoisoindolin-2-yl)piperidine-2,6-dione]
- Weel substrate protein remaining % [1]: B (80%< substrate protein remaining %≤ 100%)
- IKZF 1 substrate protein remaining % [2]: A (0% ≤ substrate protein remaining % ≤ 80%)
- IKZF2 substrate protein remaining % [3]: A (0% ≤ substrate protein remaining % ≤ 80%)
- IKZF3 substrate protein remaining % [4]: A (0% ≤ substrate protein remaining % ≤ 80%)
- CK1a substrate protein remaining % [5]: A (0% ≤ substrate protein remaining % ≤ 80%)
- GSPT1 substrate protein remaining % [6]: A (0% ≤ substrate protein remaining % ≤ 80%)
- pIC50 [7]: 6.00 to 6.30

SMILES: Cc1sc2ncnc(N3CCN(Cc4ccc5c(c4)CN(C4CCC(=O)NC4=O)C5=O)CC3)c2c1C (stereo not drawn) [GT-04706, 3-(5-((4-(5,6-dimethylthieno[2,3-d]pyrimidin-4-yl)piperazin-1-yl)methyl)-1-oxoisoindolin-2-yl)piperidine-2,6-dione]
- Weel substrate protein remaining % [1]: B (80%< substrate protein remaining %≤ 100%)
- IKZF 1 substrate protein remaining % [2]: A (0% ≤ substrate protein remaining % ≤ 80%)
- IKZF2 substrate protein remaining % [3]: A (0% ≤ substrate protein remaining % ≤ 80%)
- IKZF3 substrate protein remaining % [4]: A (0% ≤ substrate protein remaining % ≤ 80%)
- CK1a substrate protein remaining % [5]: A (0% ≤ substrate protein remaining % ≤ 80%)
- GSPT1 substrate protein remaining % [6]: A (0% ≤ substrate protein remaining % ≤ 80%)
- pIC50 [7]: 6.00 to 6.30

Now from value to compound, other results behind:

- pIC50 [7]: 6.00 to 6.30
SMILES: O=C1CCC(N2Cc3cc(CN4CCN(c5ncnc6sccc56)CC4)ccc3C2=O)C(=O)N1 (stereo not drawn) [GT-04678, 3-(1-oxo-5-((4-(thieno[2,3-d]pyrimidin-4-yl)piperazin-1-yl)methyl)isoindolin-2-yl)piperidine-2,6-dione]
- Weel substrate protein remaining % [1]: A (0% ≤ substrate protein remaining % ≤ 80%)
- IKZF 1 substrate protein remaining % [2]: A (0% ≤ substrate protein remaining % ≤ 80%)
- IKZF2 substrate protein remaining % [3]: A (0% ≤ substrate protein remaining % ≤ 80%)
- IKZF3 substrate protein remaining % [4]: A (0% ≤ substrate protein remaining % ≤ 80%)
- CK1a substrate protein remaining % [5]: B (80%< substrate protein remaining %≤ 100%)
- GSPT1 substrate protein remaining % [6]: A (0% ≤ substrate protein remaining % ≤ 80%)

- pIC50 [7]: 6.00 to 6.30
SMILES: Cc1csc2ncnc(N3CCN(Cc4ccc5c(c4)CN(C4CCC(=O)NC4=O)C5=O)CC3)c12 (stereo not drawn) [GT-04679, 3-(5-((4-(5-methylthieno[2,3-d]pyrimidin-4-yl)piperazin-1-yl)methyl)-1-oxoisoindolin-2-yl)piperidine-2,6-dione]
- Weel substrate protein remaining % [1]: B (80%< substrate protein remaining %≤ 100%)
- IKZF 1 substrate protein remaining % [2]: B (80%< substrate protein remaining %≤ 100%)
- IKZF2 substrate protein remaining % [3]: B (80%< substrate protein remaining %≤ 100%)
- IKZF3 substrate protein remaining % [4]: B (80%< substrate protein remaining %≤ 100%)
- CK1a substrate protein remaining % [5]: A (0% ≤ substrate protein remaining % ≤ 80%)
- GSPT1 substrate protein remaining % [6]: A (0% ≤ substrate protein remaining % ≤ 80%)

- pIC50 [7]: 6.00 to 6.30
SMILES: Cc1cc2c(N3CCN(Cc4ccc5c(c4)CN(C4CCC(=O)NC4=O)C5=O)CC3)ncnc2s1 (stereo not drawn) [GT-04680, 3-(5-((4-(6-methylthieno[2,3-d]pyrimidin-4-yl)piperazin-1-yl)methyl)-1-oxoisoindolin-2-yl)piperidine-2,6-dione]
- Weel substrate protein remaining % [1]: B (80%< substrate protein remaining %≤ 100%)
- IKZF 1 substrate protein remaining % [2]: B (80%< substrate protein remaining %≤ 100%)
- IKZF2 substrate protein remaining % [3]: B (80%< substrate protein remaining %≤ 100%)
- IKZF3 substrate protein remaining % [4]: B (80%< substrate protein remaining %≤ 100%)
- CK1a substrate protein remaining % [5]: A (0% ≤ substrate protein remaining % ≤ 80%)
- GSPT1 substrate protein remaining % [6]: A (0% ≤ substrate protein remaining % ≤ 80%)

- pIC50 [7]: 6.00 to 6.30
SMILES: O=C1CCC(N2Cc3cc(CN4CCN(c5ncnc6ccsc56)CC4)ccc3C2=O)C(=O)N1 (stereo not drawn) [GT-04681, 3-(1-oxo-5-((4-(thieno[3,2-d]pyrimidin-4-yl)piperazin-1-yl)methyl)isoindolin-2-yl)piperidine-2,6-dione]
- Weel substrate protein remaining % [1]: B (80%< substrate protein remaining %≤ 100%)
- IKZF 1 substrate protein remaining % [2]: B (80%< substrate protein remaining %≤ 100%)
- IKZF2 substrate protein remaining % [3]: B (80%< substrate protein remaining %≤ 100%)
- IKZF3 substrate protein remaining % [4]: B (80%< substrate protein remaining %≤ 100%)
- CK1a substrate protein remaining % [5]: A (0% ≤ substrate protein remaining % ≤ 80%)
- GSPT1 substrate protein remaining % [6]: A (0% ≤ substrate protein remaining % ≤ 80%)

- pIC50 [7]: 6.00 to 6.30
SMILES: O=C1CCC(N2Cc3cc(CN4CCN(c5nc(Cl)nc6ccsc56)CC4)ccc3C2=O)C(=O)N1 (stereo not drawn) [GT-04682, 3-(5-((4-(2-chlorothieno[3,2-d]pyrimidin-4-yl)piperazin-1-yl)methyl)-1-oxoisoindolin-2-yl)piperidine-2,6-dione]
- Weel substrate protein remaining % [1]: B (80%< substrate protein remaining %≤ 100%)
- IKZF 1 substrate protein remaining % [2]: B (80%< substrate protein remaining %≤ 100%)
- IKZF2 substrate protein remaining % [3]: B (80%< substrate protein remaining %≤ 100%)
- IKZF3 substrate protein remaining % [4]: B (80%< substrate protein remaining %≤ 100%)
- CK1a substrate protein remaining % [5]: A (0% ≤ substrate protein remaining % ≤ 80%)
- GSPT1 substrate protein remaining % [6]: A (0% ≤ substrate protein remaining % ≤ 80%)

- pIC50 [7]: > 6.30
SMILES: Cc1nc(N2CCN(Cc3ccc4c(c3)CN(C3CCC(=O)NC3=O)C4=O)CC2)c2ccsc2n1 (stereo not drawn) [GT-04693, 3-(5-((4-(2-methylthieno[2,3-d]pyrimidin-4-yl)piperazin-1-yl)methyl)-1-oxoisoindolin-2-yl)piperidine-2,6-dione]
- Weel substrate protein remaining % [1]: A (0% ≤ substrate protein remaining % ≤ 80%)
- IKZF 1 substrate protein remaining % [2]: B (80%< substrate protein remaining %≤ 100%)
- IKZF2 substrate protein remaining % [3]: A (0% ≤ substrate protein remaining % ≤ 80%)
- IKZF3 substrate protein remaining % [4]: A (0% ≤ substrate protein remaining % ≤ 80%)
- CK1a substrate protein remaining % [5]: B (80%< substrate protein remaining %≤ 100%)
- GSPT1 substrate protein remaining % [6]: A (0% ≤ substrate protein remaining % ≤ 80%)

- pIC50 [7]: > 6.30
SMILES: O=C1CCC(N2Cc3cc(CN4CCN(c5nc6c(c(N7CCOCC7)n5)SCC6)CC4)ccc3C2=O)C(=O)N1 (stereo not drawn) [GT-04694, 3-(5-((4-(4-morpholino-6,7-dihydrothieno[3,2-d]pyrimidin-2-yl)piperazin-1-yl)methyl)-1-oxoisoindolin-2-yl)piperidine-2,6-dione]
- Weel substrate protein remaining % [1]: A (0% ≤ substrate protein remaining % ≤ 80%)
- IKZF 1 substrate protein remaining % [2]: B (80%< substrate protein remaining %≤ 100%)
- IKZF2 substrate protein remaining % [3]: A (0% ≤ substrate protein remaining % ≤ 80%)
- IKZF3 substrate protein remaining % [4]: A (0% ≤ substrate protein remaining % ≤ 80%)
- CK1a substrate protein remaining % [5]: B (80%< substrate protein remaining %≤ 100%)
- GSPT1 substrate protein remaining % [6]: A (0% ≤ substrate protein remaining % ≤ 80%)
